Measured values reported in patent US11957143B2, “Highly-soluble rebaudioside D” (SUNTORY HOLDINGS LIMITED, priority 2018, dated 2024).

Tests used:
Type in all cases: physicochemical
[1] = Moisture content of crystalline forms (FIG. 10); details: sample heating 130° C. in N2, trace moisture analyzer
Method: The “moisture content” herein means the proportion of water contained in the crystal and is the proportion (wt %) of the weight of water based on the weight of the entire crystal. The moisture content of the crystal can be determined, for example, by heating the crystal at a high temperature (for example, 130° C.) under an inert atmosphere, and calculating from the change in weight between before and after the heating. The crystal of Reb. D of the present invention preferably has a moisture content of 0.1 wt % to 2.0 wt %, more preferably 0.2 wt % to 1.2 wt %, further preferably 0.40 wt % to 0.8 wt %.
The crystals of Reb. D in the crystalline form α and the crystalline form β and the control (in a stable form) were provided, and their moisture contents were compared. […] The devices and the conditions used for measuring the moisture contents are shown below.
Devices: • Trace moisture analyzer: CA-200, manufactured by Mitsubishi Chemical Analytech Co., Ltd. • Water vaporizer: VA-200 • Reagents: AQUAMICRON AX as anolyte and AQUAMICRON CXU as catholyte • Sample heating: 130° C. in an inert gas atmosphere (gas: N2, flow rate: 300 ml/min)

[2] = Turbidity (NTU) and amount dissolved 40 minutes after dissolution (FIG. 7); details: 90 mg in 150 ml pure water at 7.5° C., 350 rpm, 40 minutes later, versus control
Method: The “turbidity (NTU)” herein means the degree of turbidity when the Reb. D is dissolved in water, and the lower the turbidity means that the Reb. D is dissolved better. The turbidity can be measured by a known method, for example, using an existing absorptiometer.
Then, the solubilities were evaluated under the conditions varied. The crystal in the crystalline form α used was obtained by maintaining at 55° C. for 2 hours, followed by appropriate N2 purge and then natural cooling in vacuo. The dissolution conditions, the conditions of turbidity (NTU) measurement, and the sample preparation conditions are shown below.
90 mg of Reb. D was added to 150 ml of pure water (equivalent to 300 mg/500 ml) at 7.5° C., followed by stirring at 350 rpm for dissolution. The degree of dissolution was checked 40 minutes later.
Conditions of Turbidity (NTU) Measurement:
30 ml was collected 40 minutes later, and the turbidity (NTU) was measured. The turbidity was measured with an absorptiometer (2100AN, manufactured by Hach Company) by turbidimetry using formazin as a standard solution.
(§1) Sample Preparation Conditions:
A 0.45-um filter was immersed in the solution for 6 seconds, and then a filtrate was obtained through the filter. 1 ml of the filtrate obtained was collected and diluted 10-fold with pure water.

[3] = Solubility of crystals of Reb. D, amount dissolved (FIG. 6); details: 300 mg in pure water (150 ml) at 7.5° C., stirring at 200 rpm, 0.45-um filter
Method: The crystals of Reb. D in the crystalline form α and the crystalline form β and a control (commercially available Reb. D in a stable form) were provided, to compare their solubilities. The crystal in the crystalline form α used was obtained by maintaining Reb. D at 50° C. for 1 hour, followed by appropriate N2 purge, and the crystal in the crystalline form β used was obtained by maintaining Reb. D at 100° C. for 1.5 hours, followed by appropriate N2 purge and then overnight cooling at normal temperature. The conditions for dissolution and sample preparation are shown below.
300 mg of Reb. D was added to pure water (150 ml) at 7.5° C., followed by stirring at 200 rpm, for dissolution.
as §1
A 0.45-um filter was immersed in the solution for 30 seconds, and then a filtrate was obtained through the filter. 1 ml of the filtrate obtained was collected and diluted 10-fold with pure water.

[4] = Improvement in solubility by supplementary addition of crystal to saturated Reb. D solution (FIG. 9)
Method: Using the Reb. D in the crystalline form α, tests were conducted to confirm that the solubility of commercially available Reb. D was improved. […] First, commercially available Reb. D (in a stable form) was added to water to a saturated state. 24 hours later, the crystal of Reb. D in the crystalline form α was added to the saturated solution. Sampling was performed 24 hours later, 25 hours later, and 48 hours later, to check the amount of the Reb. D dissolved. […] D in the crystalline form α was added.

| moisture content [1] | amount dissolved [2] | turbidity (NTU) [2] | amount dissolved as compared with the control (Cont) [3] | persistence of the increase in amount dissolved ([4]; 24 hours after the crystal was added to the saturated solution) | amount of Reb. D dissolved after addition of the crystal to a saturated solution of commercially available Reb. D ([4]; crystal added 24 hours after saturation with stable form) | SMILES |
| --- | --- | --- | --- | --- | --- | --- |
| over 5 wt % |  |  |  |  |  | C=C1C[C@@]23CC[C@H]4[C@@](C)(CCC[C@@]4(C)C(=O)O[C@@H]4O[C@H](CO)[C@@H](O)[C@H](O)[C@H]4O[C@@H]4O[C@H](CO)[C@@H](O)[C@H](O)[C@H]4O)[C@@H]2CC[C@]1(O[C@@H]1O[C@H](CO)[C@@H](O)[C@H](O[C@@H]2O[C@H](CO)[C@@H](O)[C@H](O)[C@H]2O)[C@H]1O[C@@H]1O[C@H](CO)[C@@H](O)[C@H](O)[C@H]1O)C3 [control, rebaudioside D] |
| 0.67 wt % | tended to increase | tended to be low | increased | the increase continued | further increased | C=C1C[C@@]23CC[C@H]4[C@@](C)(CCC[C@@]4(C)C(=O)O[C@@H]4O[C@H](CO)[C@@H](O)[C@H](O)[C@H]4O[C@@H]4O[C@H](CO)[C@@H](O)[C@H](O)[C@H]4O)[C@@H]2CC[C@]1(O[C@@H]1O[C@H](CO)[C@@H](O)[C@H](O[C@@H]2O[C@H](CO)[C@@H](O)[C@H](O)[C@H]2O)[C@H]1O[C@@H]1O[C@H](CO)[C@@H](O)[C@H](O)[C@H]1O)C3 [crystalline form α, rebaudioside D] |
| 0.37 wt % |  |  | increased |  |  | C=C1C[C@@]23CC[C@H]4[C@@](C)(CCC[C@@]4(C)C(=O)O[C@@H]4O[C@H](CO)[C@@H](O)[C@H](O)[C@H]4O[C@@H]4O[C@H](CO)[C@@H](O)[C@H](O)[C@H]4O)[C@@H]2CC[C@]1(O[C@@H]1O[C@H](CO)[C@@H](O)[C@H](O[C@@H]2O[C@H](CO)[C@@H](O)[C@H](O)[C@H]2O)[C@H]1O[C@@H]1O[C@H](CO)[C@@H](O)[C@H](O)[C@H]1O)C3 [crystalline form β, rebaudioside D] |
